Experimental data published in article PMC7087583 (Biotechnology Letters, 2012).

Target: SARS 3CL^pro (Severe acute respiratory syndrome coronavirus, UniProt P0C6U8)
Experiment: biochemical
Parameters: species or system SARS-CoV

Row | SMILES | IC50 [µM] | inhibition at 200 µM (pH 7.5) [%] | Inhibition (%) (pH 7.5) | 3CL^pro inhibitory activity relative to EGCG (times higher) [times] | Ki [µM] | Type of inhibition
1 | O=C1c2c(O)cc(O)cc2O[C@H](c2cc(O)c(O)c(O)c2)[C@H]1O [AMPLS, ampelopsin] | 364 ± 8.7 | > 30 |  |  |  | 
2 | O=c1c(-c2ccc(O)cc2)coc2cc(O)ccc12 [Daidzein, daidzein] | 351 ± 2.9 | > 30 |  |  |  | 
3 | Oc1cc(O)c2c(c1)O[C@H](c1cc(O)c(O)c(O)c1)[C@H](O)C2 [EGC, epigallocatechin] |  | 5 | 5.4 |  |  | 
4 | O=C(O[C@@H]1Cc2c(O)cc(O)cc2O[C@H]1c1cc(O)c(O)c(O)c1)c1cc(O)c(O)c(O)c1 [GCG, gallocatechin gallate] | 47 ± 0.9 | > 80 |  | 1.5 | 25 ± 1.7 | competitive inhibition pattern
5 | O=c1c(-c2ccc(O)cc2)coc2c([C@@H]3O[C@H](CO)[C@@H](O)[C@H](O)[C@H]3O)c(O)ccc12 [Puerarin, puerarin] | 381 ± 12.5 | > 30 |  |  |  | 
6 | O=c1c(O)c(-c2ccc(O)c(O)c2)oc2cc(O)cc(O)c12 [Quercetin] | 73 ± 4 | > 80 |  |  |  | 
